From patent US11065293B2 (priority 2016, dated 2021)

B1: G-CSF: granulocyte colony stimulating factor, given day 2 to day 4 after cyclophosphamide; contrast group of leukopenia experiment (protein, UniProt P09919 31-207, looked up)
Granulocyte …: TPLGPASSLPQSFLLKCLEQVRKIQGDGAALQEKLVSECATYKLCHPEELVLLGHSLGIPWAPLSSCPSQALQLAGCLSQLHSGLFLYQGLLQALEGISPELGPTLDTLQLDVADFATTIWQQMEELGMAPALQPTQGAMPAFASAFQRRAGGVLVASHLQSFLEVSYRVLRHLAQP

Legend:
Assay type in all cases: in vivo, rats
[1] = system: white blood cells; conditions: for the numbers of white blood cell, Day 0 before chemotherapy: day 0 before cyclophosphamide, experimental group pretreated 5 days with composition, disease and contrast groups not yet treated; for the numbers of white blood cell, Day 4 after chemotherapy: day 4 after cyclophosphamide, G-CSF on day 2 to day 4, composition twice daily 0.5-1.67 uL/mouse; for the numbers of white blood cell, Day 7 after chemotherapy: day 7 after cyclophosphamide; for the numbers of white blood cell, Day 10 after chemotherapy: day 10 after cyclophosphamide; for numbers of white blood cell (in words): disease group vs normal group, contrast group on day 7 and day 10, experimental group vs contrast group after chemotherapy
Description: Furthermore, a common side effect of chemotherapy is a drop in the number of white blood cells, which leads to an increased risk of getting an infection. Currently, granulocyte colony stimulating factor (G-CSF) treatment can make white blood cell levels go up faster. However, patients may have one or more side effects of using G-CSF. To understand the effect of present pharmaceutical composition on white blood cells, cyclophosphamide-induced leukopenia experiment execute as follows: 6 to 7 week-old female rats (20-24 grams, ICR) were divided into normal group, disease group, contrast group and experimental group. In normal group, rats were not gave any medication. In disease, contrast and experimental group, rats were administered cyclophosphamide on day 0 to induce leukopenia. Besides, in contrast group, rats were also administered G-CSF on day 2 to day 4. In experimental group, rats were treated with presented pharmaceutical composition for 5 days before administered cyclophosphamide, and continuously treated for 10 days after administered cyclophosphamid. Therefore, the total days of presented pharmaceutical composition administered in experimental group is 15 days. The administered method of presented pharmaceutical composition is twice daily, and the dosage was 0.5-1.67 uL/mouse. The rats in each group were phlebotomized on day 0 before chemotherapy, and on day 4, day 7 and day 10 after chemotherapy.

[2] = tail flick latency after Taxol-induced pain; conditions: Taxol 20 mg/kg day 0 to day 5; day 3, day 7 and day 14; composition 21 days twice daily, vs contrast group
Description: To understand the effect of presented pharmaceutical composition on cancer pain, the experiment was following: 6 to 7 week-old female rats (20-24 grams, ICR) were divided into control group, contrast group and experimental group. […] In contrast group and experimental group, rats were administered Taxol® (20 mg/kg) from day 0 to day 5 to induce the pain. Besides, the experimental group were also treated with presented pharmaceutical composition for 7 days before administered Taxol®, and continuously treated for 14 days after administered Taxol®. Therefore, the total days of presented pharmaceutical composition administered in experimental group is 21 days. The administered method is twice daily, and the dosage was 0.5-1.67 uL/mouse. On day 3, 7 and 14 during the drug administration, the tail flick latency (Tail-Flick Unit 37360) was conducted. The tail flick latency is used to evaluate the degree of change of pain threshold by heating the tail of rat through infrared.

[3] = organ weight after Taxol administration; conditions: day 15, contrast group (Taxol) vs control group, experimental group even lower than control group
Description: Cancer pain is a kind of pain caused by cancer, which is most common symptoms and most feared symptoms for patients. If the pain is not controlled properly, the life quality of patients would be affected severely. To understand the effect of presented pharmaceutical composition on cancer pain, the experiment was following: 6 to 7 week-old female rats (20-24 grams, ICR) were divided into control group, contrast group and experimental group. In control group, rats were not gave any medication. In contrast group and experimental group, rats were administered Taxol® (20 mg/kg) from day 0 to day 5 to induce the pain. Besides, the experimental group were also treated with presented pharmaceutical composition for 7 days before administered Taxol®, and continuously treated for 14 days after administered Taxol®. Therefore, the total days of presented pharmaceutical composition administered in experimental group is 21 days. The administered method is twice daily, and the dosage was 0.5-1.67 uL/mouse. On day 3, 7 and 14 during the drug administration, the tail flick latency (Tail-Flick Unit 37360) was conducted. The tail flick latency is used to evaluate the degree of change of pain threshold by heating the tail of rat through infrared.
Organ hypertrophy is common side effect induced by chemotherapy drugs. To understand the impact of the presented pharmaceutical compositions on organs, the female rats of example 5 were sacrificed on day 15. The heart, liver, spleen and kidney acquired from rats were weighted respectively.

Row | Molecule | the numbers of white blood cell, Day 0 before chemotherapy [1] | the numbers of white blood cell, Day 4 after chemotherapy [1] | the numbers of white blood cell, Day 7 after chemotherapy [1] | the numbers of white blood cell, Day 10 after chemotherapy [1] | numbers of white blood cell (in words) [1] | tail flick latency [2] | heart weight ([3]; FIG. 8A) | liver weight ([3]; FIG. 8B) | spleen weight ([3]; FIG. 8C) | kidney weight ([3]; FIG. 8D)
1 | O=P1(N(CCCl)CCCl)NCCCO1 (stereo not drawn) [cyclophosphamide] | 887 | 56 | 333 | 772 | extremely reduced | – | – | – | – | –
2 | CC(=O)O[C@H]1C(=O)[C@@]2(C)[C@H]([C@H](OC(=O)c3ccccc3)[C@]3(O)C[C@H](OC(=O)[C@H](O)[C@@H](NC(=O)c4ccccc4)c4ccccc4)C(C)=C1C3(C)C)[C@]1(OC(C)=O)CO[C@@H]1C[C@@H]2O [Taxol®] | – | – | – | – | – | lower | significantly heavier | significantly heavier | significantly heavier | significantly heavier
3 | B1 | 843 | 51 | 528 | 768 | increase | – | – | – | – | –
